Laboratory results: patent publication US6737383B1, “Herbicidal oxadiazolidines” (priority 1999, dated 2004)

Assays:
cocklebur = experiment: Test B pre/postemergence cocklebur; type: in vivo, Xanthium strumarium
Outline: (§1)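 Test chemicals in a non-phytotoxic solvent mixture with surfactant were sprayed preemergence onto planted seeds and postemergence onto plants 2 to 18 cm tall (1- to 4-leaf stage). After twelve to sixteen days in a greenhouse, injury was visually rated against untreated controls from 0 (no effect) to 10 (complete control).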

wheat = experiment: Test B pre/postemergence wheat; type: in vivo, Triticum aestivum
Outline: as §1

morningglory = experiment: Test B pre/postemergence morningglory; type: in vivo, Ipomoea hederacea
Outline: as §1

crabgrass = experiment: Test B pre/postemergence crabgrass; type: in vivo, Digitaria sanguinalis
Outline: as §1

pigweed = experiment: Test B pre/postemergence pigweed; type: in vivo, Amaranthus retroflexus
Outline: as §1

giant foxtail = experiment: Test B pre/postemergence giant foxtail; type: in vivo, Setaria faberii
Outline: as §1

sugar beet = experiment: Test B pre/postemergence sugar beet; type: in vivo, Beta vulgaris
Outline: as §1

surinam grass = experiment: Test B pre/postemergence surinam grass; type: in vivo, Brachiaria decumbens
Outline: as §1

corn = experiment: Test B pre/postemergence corn; type: in vivo, Zea mays
Outline: as §1

bedstraw = experiment: Test B pre/postemergence bedstraw; type: in vivo, Galium aparine; details: for Bedstraw plant response rating: scale 0 to 10, 0 is no effect, 10 is complete control
Outline: as §1

wild oat = experiment: Test B pre/postemergence wild oat; type: in vivo, Avena fatua
Outline: as §1

blackgrass = experiment: Test B pre/postemergence blackgrass; type: in vivo, Alopecurus myosuroides
Outline: as §1

rape = experiment: Test B pre/postemergence rape; type: in vivo, Brassica napus
Outline: as §1

soybean = experiment: Test B pre/postemergence soybean; type: in vivo, Glycine max
Outline: as §1

purple nutsedge = experiment: Test B pre/postemergence purple nutsedge; type: in vivo, Cyperus rotundus
Outline: as §1

velvetleaf = experiment: Test B pre/postemergence velvetleaf; type: in vivo, Abutilon theophrasti
Outline: as §1

[1] = Postemergence, Rate 62 g/ha, scale of 0 to 10, 0 is no effect, 10 is complete control
[2] = Postemergence, Rate 125 g/ha, scale 0 to 10, 0 is no effect, 10 is complete control
[3] = Postemergence, Rate 250 g/ha, scale 0 to 10
[4] = Postemergence, Rate 500 g/ha, scale 0 to 10, 0 is no effect, 10 is complete control
[5] = Preemergence, Rate 62 g/ha, scale of 0 to 10 where 0 is no effect and 10 is complete control
[6] = Preemergence, Rate 125 g/ha, scale 0 to 10, 0 is no effect, 10 is complete control
[7] = Preemergence, Rate 250 g/ha, scale 0 to 10, 0 is no effect, 10 is complete control
[8] = Preemergence, Rate 500 g/ha, scale of 0 to 10 where 0 is no effect and 10 is complete control

## CC(C)N(C(=O)n1oc(=O)n(C(C)C(=O)c2ccccc2)c1=O)c1ccc(F)cc1F (stereo not drawn) [Compound 511]
cocklebur; [1]
  Cocklebur plant response rating: 0
cocklebur; [2]
  Cocklebur plant response rating: 0
cocklebur; [3]
  Cocklebur plant response rating: 0
cocklebur; [4]
  Plant response rating, Cocklebur: 0
cocklebur; [5]
  Plant response rating, Cocklebur: 0
cocklebur; [6]
  Cocklebur plant response rating: 0
cocklebur; [7]
  Cocklebur plant response rating: 0
cocklebur; [8]
  Cocklebur plant response rating: 0
wheat; [1]
  Wheat plant response rating: 0
wheat; [2]
  Wheat plant response rating: 0
wheat; [4]
  Plant response rating, Wheat: 0
wheat; [5]
  Plant response rating, Wheat: 0
wheat; [6]
  Wheat plant response rating: 0
wheat; [8]
  Wheat plant response rating: 0
morningglory; [1]
  Morningglory plant response rating: 4
morningglory; [2]
  Morningglory plant response rating: 4
morningglory; [4]
  Plant response rating, Morningglory: 5
morningglory; [5]
  Plant response rating, Morningglory: 0
morningglory; [6]
  Morningglory plant response rating: 0
morningglory; [8]
  Morningglory plant response rating: 0
crabgrass; [1]
  Crabgrass plant response rating: 3
crabgrass; [2]
  Crabgrass plant response rating: 3
crabgrass; [3]
  Crabgrass plant response rating: 7
crabgrass; [4]
  Plant response rating, Crabgrass: 9
crabgrass; [5]
  Plant response rating, Crabgrass: 5
crabgrass; [6]
  Crabgrass plant response rating: 6
crabgrass; [8]
  Crabgrass plant response rating: 10
pigweed; [1]
  Redroot pigweed plant response rating: 5
pigweed; [2]
  Redroot pigweed plant response rating: 6
pigweed; [4]
  Plant response rating, Redroot pigweed: 7
pigweed; [5]
  Plant response rating, Redroot pigweed: 4
pigweed; [6]
  Redroot pigweed plant response rating: 6
pigweed; [8]
  Redroot pigweed plant response rating: 8
Giant foxtail; [1]
  Giant foxtail plant response rating: 3
Giant foxtail; [2]
  Giant foxtail plant response rating: 3
Giant foxtail; [4]
  Plant response rating, Giant foxtail: 9
Giant foxtail; [5]
  Plant response rating, Giant foxtail: 5
Giant foxtail; [8]
  Giant foxtail plant response rating: 10
Sugar beet; [1]
  Sugarbeets plant response rating: 0
Sugar beet; [2]
  Sugarbeets plant response rating: 0
Sugar beet; [4]
  Plant response rating, Sugarbeets: 2
Sugar beet; [5]
  Plant response rating, Sugarbeets: 0
Sugar beet; [6]
  Sugarbeets plant response rating: 0
Sugar beet; [8]
  Sugarbeets plant response rating: 0
Surinam grass; [1]
  B. signalgrass plant response rating: 0
Surinam grass; [2]
  B. signalgrass plant response rating: 0
Surinam grass; Postemergence, Rate 250 g/ha, scale 0 to 10, 0 no effect, 10 complete control
  B. signalgrass plant response rating: 0
Surinam grass; [4]
  Plant response rating, B. signalgrass: 3
Surinam grass; [5]
  Plant response rating, B. signalgrass: 0
Surinam grass; [6]
  B. signalgrass plant response rating: 0
Surinam grass; [7]
  B. signalgrass plant response rating: 0
Surinam grass; Preemergence, Rate 500 g/ha, scale 0 to 10, 0 is no effect, 10 is complete control
  B. signalgrass plant response rating: 0
corn; [1]
  Corn plant response rating: 0
corn; [2]
  Corn plant response rating: 0
corn; [3]
  Corn plant response rating: 0
corn; [4]
  Plant response rating, Corn: 0
corn; [5]
  Plant response rating, Corn: 0
corn; [6]
  Corn plant response rating: 0
corn; [8]
  Corn plant response rating: 0
bedstraw; Postemergence, Rate 125 g/ha
  Bedstraw plant response rating: 8
bedstraw; [5]
  Plant response rating, Bedstraw: 0
bedstraw; Preemergence, Rate 125 g/ha
  Bedstraw plant response rating: 0
bedstraw; Preemergence, Rate 250 g/ha
  Bedstraw plant response rating: 0
bedstraw; Preemergence, Rate 500 g/ha
  Bedstraw plant response rating: 0
Wild oat; [1]
  Wild oats plant response rating: 0
Wild oat; [2]
  Wild oats plant response rating: 0
Wild oat; [4]
  Plant response rating, Wild oats: 0
Wild oat; [5]
  Plant response rating, Wild oats: 0
Wild oat; [6]
  Wild oats plant response rating: 0
Wild oat; [8]
  Wild oats plant response rating: 2
blackgrass; [1]
  Blackgrass plant response rating: 0
blackgrass; [2]
  Blackgrass plant response rating: 0
blackgrass; [3]
  Blackgrass plant response rating: 0
blackgrass; [4]
  Plant response rating, Blackgrass: 2
blackgrass; [5]
  Plant response rating, Blackgrass: 0
blackgrass; [6]
  Blackgrass plant response rating: 0
blackgrass; [7]
  Blackgrass plant response rating: 0
blackgrass; [8]
  Blackgrass plant response rating: 0
rape; [1]
  Rape plant response rating: 0
rape; [2]
  Rape plant response rating: 1
rape; [4]
  Plant response rating, Rape: 4
rape; [5]
  Plant response rating, Rape: 0
rape; [6]
  Rape plant response rating: 0
rape; [8]
  Rape plant response rating: 0
soybean; [1]
  Soybean plant response rating: 1
soybean; [2]
  Soybean plant response rating: 4
soybean; [4]
  Plant response rating, Soybean: 4
soybean; [5]
  Plant response rating, Soybean: 0
soybean; [6]
  Soybean plant response rating: 0
soybean; [8]
  Soybean plant response rating: 0
Purple nutsedge; [1]
  Nutsedge plant response rating: 0
Purple nutsedge; [2]
  Nutsedge plant response rating: 0
Purple nutsedge; [4]
  Plant response rating, Nutsedge: 0
Purple nutsedge; [5]
  Plant response rating, Nutsedge: 0
Purple nutsedge; [6]
  Nutsedge plant response rating: 0
Purple nutsedge; [8]
  Nutsedge plant response rating: 0
velvetleaf; [1]
  Velvetleaf plant response rating: 0
velvetleaf; [2]
  Velvetleaf plant response rating: 1
velvetleaf; [4]
  Plant response rating, Velvetleaf: 2
velvetleaf; [5]
  Plant response rating, Velvetleaf: 0
velvetleaf; [6]
  Velvetleaf plant response rating: 0
velvetleaf; [8]
  Velvetleaf plant response rating: 0
